Test results from patent publication US20090325906A1, “Methods and compositions for therapeutic treatment” (priority 2008, published 2009).
Like-named read-outs stand apart in the source and are kept apart here.

What was measured:
mouse spleen cells [1] = assay: In vitro Con A assay on spleen cells; type: cell-based; settings: for response of spleen cells to Con A (proliferation): high ([…]10^6 cells/well) and low (8×10^5 cells/well) cell concentration
Experimental: (§1) Animals: 8-9 weeks-old Lewis and Brown Norway male rats are obtained from Charles River Laboratories. General procedures for animal care and housing is in accordance with the National Research Council (NRC) Guide for the Care and Use of Laboratory Animals (1996) and the Animal Welfare Standards incorporated in 9 CFR Part 3, 1991.
Spleens are collected for use in in vitro Con A and LPS assays.
Spleen cells are treated with Con A in the presence of vehicle, tacrolimus, quercetin or two different concentrations of tacrolimus (10^−8.2 and 10^−8.5 M) and increasing doses of quercetin at a high cell concentration (FIG. 13) or at a low cell concentration (FIG. 14). […] There is no significance difference between the effect of quercetin on tacrolimus induced cell suppression in vitro at the different concentrations used for quercetin. The same results are observed in cultures with low cell concentration (FIG. 14).

rats = type: in vivo
Experimental: Animals: 8-9 weeks-old rats are used. General procedures for animal care and housing are in accordance with the National Research Council (NRC) Guide for the Care and Use of Laboratory Animals (1996) and the Animal Welfare Standards incorporated in 9 CFR Part 3, 1991.
Treatment: Rats are treated i.v with FK506 and i.p. with Quercetin. Rats receive daily administrations containing either 0.5 mg/kg or 2 mg/kg of FK506 approximately one hour after the start of the light cycle. Rats are treated 30 minutes prior to FK506 treatment with quercetin at three different concentrations, 10 mg/kg, 25 mg/kg or 200 mg/kg. Subsets of 5 rats per group are used for blood sampling at each time point. Blood is collected for glucose measurement on days 0, 5, 9, and 14.

[2] = cited from earlier work
mouse spleen cells [3] = assay: In vitro LPS assay on spleen cells; type: cell-based; settings: high ([…]10^6 cells/well) and low (8×10^5 cells/well) cell concentration
[4] = Solubility of quercetin with sulfobutylether-7-β-cyclodextrin and meglumine; type: physicochemical; settings: Captisol 30% w/v, Meglumine 44 mM, room temperature, about 10 minutes, excess solids removed
Experimental: Sulfobutylether-7-β-cyclodextrin (Captisol™) is dissolved in water to form a solution at 30% w/v. To the Captisol solution is added Meglumine at a concentration of 44 mM and […] at a concentration of about 20 mg/ml. The solution is stirred at room temperature for about 10 minutes. The solution is separated from any excess solids (e.g. by filtration). The concentration of quercetin in the solution is about 9.2 mg/mL.

[5] = Sulfobutylether-7-β-cyclodextrin quercetin aqueous composition: concentration and storage stability; type: physicochemical; settings: 10 mg/ml in water with sulfobutylether-7-β-cyclodextrin
Experimental: The flask is placed in an ice bath. When all of the Captisol is dissolved, 1.24 g of quercetin (Micron Technologies) (equivalent to about 1 g of anhydrous quercetin) is added with stirring. Into the flask, 12 ml of 1 N sodium hydroxide is added over about 5 to 10 minutes. […] Into the flask is then added 10.5 ml of hydrochloric acid over 5 to 10 minutes at a slow enough rate to avoid precipitation. During the addition of the sodium hydroxide and the hydrochloric acid, the temperature is maintained at less than 20° C. DI water is then added to give total volume of 100 ml. This procedure results in a sulfobutylether-7-β-cyclodextrin-quercetin aqueous composition at a concentration of 10 mg/ml (33 mM) in quercetin at a pH of about 7.8.

[6] = quercetin or a quercetin derivative; cited from earlier work
[7] = system: LEW responder splenocytes (lymphocyte proliferation); assay: Mixed lymphocyte reaction (MLR) with spleen cells of treated Lewis rats; type: cell-based, rat
Experimental: as §1, with “housing are” for “housing is”
(§2) Treatment: Lewis rats are treated with different single doses of LNS 0694 i.p. 30 minutes prior to single i.v. injections of tacrolimus at a concentration of 1 mg/kg as described in the table below.
(§3) Spleens are collected at 4 hr after administration of FK506 for use in the in vitro mixed lymphocyte reaction (MLR) and Con A assays. In addition to treated Lewis rats, spleens are collected from 5 Brown Norway rats (not treated) which are used for the in vitro assay.
Mixed lymphocyte reactions: A single cell suspension of the spleen of each rat on test (LEW, responder) is prepared with a Dounce homogenizer and wash-medium. The cell suspension is depleted of red blood cells (treatment with NH4CL/Tris buffer) and washed twice with wash medium before resuspending in complete medium (CM; RPMI 1640 with 5% heat-inactivated (30 minutes at 56° C.) normal rat serum (from Lewis rats), 2 mM GlutaMAX, 100 U/ml penicillin and 100 μg/ml streptomycin mixture, and 55 μM 2-mercaptoethanol). A single cell suspension of splenocytes from five Brown Norway rats (BN, stimulators) is prepared with the same method. The BN splenocytes are pooled and irradiated with 1,500-2,000 rad (cesium source) before use.
Varying numbers of responder cells are mixed with a constant number of stimulators (105) in 96-well, U-bottom cell culture plates to give a final responder:stimulator (R:S) ratio of 10:1, 5:1, 1:1 and 0.5:1 in 200 μl CM. Control wells for each cell suspension contained 10^5 responders alone in medium and 105 pooled, irradiated stimulators alone in medium (separate wells). For a positive proliferative response, each responder (10^5) is treated with 2.5 μg/ml Con A. […]
The results of the MLR assays [thymidine incorporation as counts per minute (CPM)] are expressed as mean±SD.

[8] = system: LEW responder splenocytes activated with Con A; assay: Con A stimulated proliferation of spleen cells of treated Lewis rats; type: cell-based, rat; settings: LNS 0694 i.p. before FK 506 1 mg/kg i.v.
Experimental: as §2, §3
Varying numbers of responder cells are mixed with a constant number of stimulators (105) in 96-well, U-bottom cell culture plates to give a final responder:stimulator (R:S) ratio of 10:1, 5:1, 1:1 and 0.5:1 in 200 μl CM. Control wells for each cell suspension contained 10^5 responders alone in medium and 105 pooled, irradiated stimulators alone in medium (separate wells). For a positive proliferative response, each responder (10^5) is treated with 2.5 μg/ml Con A.
Cultures are incubated at 37±° 1 C. for 72±2 hours in 5±1% CO2 humidified air. Each well is pulsed with 1 μCi tritiated thymidine for 18±2 hours before automatic harvesting and analysis in a liquid scintillation counter.

[9] = Pharmacokinetics of FK 506 in male Lewis rats, whole blood drug levels; type: in vivo; settings: FK 506 1 mg/kg i.v. with i.p. LNS 0694 at different doses
Experimental: as §1
Treatment: Lewis rats are treated as described in example 3. Subsets of 3 Lewis rats per group are used for blood sampling at each time point (Groups 2-5) as described in the table below.
Plasma Blood Sample Collection: Whole blood is collected from the retro-orbital sinus under 60:40 CO2:O2 anesthesia using EDTA as the anticoagulant. Sample collection is performed at 9 time points: 5, 15, and 30 min and 1, 2, 4, 6, 8, & 24 hr after administration of FK 506. Three samples are collected from each rat per group (Groups 2-5). The first 2 samples are collected under anesthesia, after which the animal regains consciousness and is retained until the next collection interval. […]
Drug levels are determined in collected whole blood samples using a bioanalytical method developed to detect parent drug levels.
Results: The pharmacokinetics parameters of FK 506 are determined in male Lewis rats after 1 mg/kg i.v. administration alone or in combination with i.p, administration of different doses of LNS 0694 (See FIG. 15).

[10] = system: heart transplant patients; settings: target range 5-15 ng/mL, tacrolimus treatment arm, European study; cited from earlier work
islet = settings: 0.01 μmol/liter, after 7-d incubation; cited from earlier work
[11] = system: liver transplant patients; settings: two liver transplant trials; 514 patients tacrolimus and steroids, 515 patients CBIR; cited from earlier work
[12] = system: renal transplant recipients; settings: cited from earlier work
murine or human T cells = settings: disrupting calcium signaling events that lead to lymphokine production; cited from earlier work

In the case of O=c1c(O)c(-c2ccc(O)c(O)c2)oc2cc(O)cc(O)c12 [quercetin], the “tacrolimus induced cell suppression in vitro” value (mouse spleen cells [1]; Con A, tacrolimus 10^−8.2 and 10^−8.5 M with increasing doses of quercetin, high cell concentration) is reported as “does not impair”, the “effect of tacrolimus on cells” value (mouse spleen cells [1]; conclusion of Example 6) is reported as “does not alter” and the “response of spleen cells to Con A (proliferation)” value (mouse spleen cells [1]) is reported as “no significant effect”. The FK506 induced hyperglycemia (rats; FK506 0.5 mg/kg i.v. daily, quercetin i.p. 30 minutes before, FIG. 2) was “decreases”, the “increase of glucose blood levels by FK506” value (rats; FK506 0.5 mg/kg, quercetin 10, 25 and 200 mg/kg) was “reduced” and the “increase of blood glucose (percent change)” value (rats; FK506 2 mg/kg + quercetin 10 mg/kg, day 9) was 60%. The “increase of blood glucose (percent change)” value (rats; FK506 2 mg/kg + quercetin 25 mg/kg, day 9) was 90%, the “percent change of blood glucose” value (rats; FK506 2 mg/kg + quercetin 200 mg/kg, day 9) was “reduced to the levels similar to rats treated with vehicle alone” and the FK506 induced hyperglycemia (rats; FK506 2 mg/kg i.v. daily, quercetin i.p. 30 minutes before, FIG. 1) was “decreases”. For the same compound, the “increase in glucose blood levels by FK506” value (rats; FK506 2 mg/kg, day 5, quercetin 10, 25 and 200 mg/kg) was “reduced”, the “increase of glucose blood levels by FK506” value (rats; FK506 2 mg/kg, day 9, quercetin 10, 25 and 200 mg/kg) was “reduced” and the FK506 induced hyperglycemia (rats; conclusion of Example 4, both FK506 doses) was “decreases”. The stability in solution ([2]; above pH 5) was “degradation”, the stability in solution ([2]; below pH 3) was “stable” and the “response of spleen cells to LPS (proliferation)” value (mouse spleen cells [3]) was “no significant effect”. For the same compound, the “concentration of quercetin in the solution” value [4] was “about 9.2 mg/mL”, the “stability of solution to precipitation” value [5] was “stable for more than two weeks without precipitation” and the serum half-life [6] was 19 to 25 h.
In the case of O=c1c(O)c(-c2ccc(O)c(O)c2)oc2cc(O)cc(O)c12 [LNS 0694], the “FK 506 inhibitory effect on lymphocyte proliferation in MLR” value ([7]; LNS 0694 50, 150, 300 mg/kg i.p. 30 minutes before FK 506 1 mg/kg i.v.) is reported as “increases FK 506 inhibitory effect in a dose-dependent manner”, the “FK 506 inhibitory effect on lymphocyte proliferation after Con A” value [8] is reported as “increases FK 506 inhibitory effect” and the “peripheral bioavailability of FK506” value [9] is reported as “increases the peripheral bioavailability of FK506 in a dose dependent manner”.
For C=CC[C@@H]1/C=C(\C)C[C@H](C)C[C@H](OC)[C@H]2O[C@@](O)(C(=O)C(=O)N3CCCC[C@H]3C(=O)O[C@H](/C(C)=C/[C@@H]3CC[C@@H](O)[C@H](OC)C3)[C@H](C)[C@@H](O)CC1=O)[C@H](C)C[C@@H]2OC (relative stereo) [tacrolimus, [3S-[3R[E(1S*,3S*,4S*)], 4S*,5R*,8S*,9E,12R*,14R*,15S*,16R*,18S*,19S*,26aR*]]-,6,8,11,12,13,14,15,16,17,18,19,24,25,26,26a-hexadecahydro-5,19-dihydroxy-3-[2-(4-hydroxy-3-methoxycyclohexyl)-1-methylethenyl]-14,16-dimethoxy-4,10,12,18-tetramethyl-8-(2-propenyl)-15,19-epoxy-3H-pyrido[2,1-c][1,4]oxaazacyclotricosine-1,7,20,21(4H,23H)-tetrone, monohydrate], the “lymphocyte proliferation in MLR (thymidine incorporation)” value ([7]; FK 506 1 mg/kg i.v., spleens collected at 4 hr) is given as “inhibited”, the “inhibitory effect on MLR by R:S ratio” value ([7]; FK 506 1 mg/kg i.v., R:S ratios 0.5:1, 1:1, 5:1) is given as “stronger inhibitory effect at lower R:S ratios” and the “patients with trough concentrations within the pre-defined target range” value [10] is given as 74-86%. The “glucose-stimulated insulin secretion, of the control value” (islet) was 32±5%, the “proportion of patients reporting more than one adverse event” value [11] was 99.8% and the “response of spleen cells to Con A (proliferation)” value (mouse spleen cells [1]) was “inhibits Con A-induced proliferation in a dose dependent manner”. The “percent change of glucose blood level” value (rats; rat, in vivo, 0.5 mg/kg) was “greater increase”, the “response of spleen cells to LPS (proliferation)” value (mouse spleen cells [3]) was “inhibits LPS-induced proliferation in a dose dependent manner” and the “incidence of posttransplant diabetes mellitus (PTDM)” value ([12]; Japan) was 31.4%. For the same compound, the “incidence of posttransplant diabetes mellitus (PTDM)” value ([12]; western countries) was 10-30% and the “potency relative to CsA” value (murine or human T cells) was 50-100 fold.
